Five compounds from patent US20220002429A1, “TUMOR CELL AGGREGATION INHIBITORS' FOR TREATING CANCER” (Northwestern University, priority 2018, published 2022) can be followed below.

Residues, ends and D or L forms follow the SMILES beside them. *: point of attachment. Cbz = O=C(OCc1ccccc1)*

In one test the test system is phospho-EGFR (Y845). Kind of test: immunoblot of phospho-EGFR (Y845) in siCD44-transfected MDA-MB-231 cells. The test is classed as cell-based, human. The following applies: siCD44 MDA-MB-231 cells in suspension, inhibitor for 6 hours. Here is the method:
FIG. 23. CD44 promotes EGFR stability and activity in clusters. A. Immunoblots of phospho-EGFR (Y845), EGFR and actin of TN1-PDX tumor cells in clustering assays upon CD44 knockdown for 36 hours. B. Real-time PCR showing no significant (NS) effect of siCD44 on EGFR mRNA levels. Immunoblots of phospho-EGFR (Y845) and total EGFR of MDA-MB-231 cells in suspension for 48 hours after transfected with scramble control (con), siCD44, or siEGFR. D. Immunoblots of phospho-EGFR (Y845) in MDA-MB-231 cells, transfected with siCD44, either adherent (adh) or in suspension in the presence of proteasome inhibitor (MG-132) or endocytosis inhibitor (sucrose) for 6 hours. E. Immunoprecipitation of CD44-FLAG and detection of EGFR by immunoblot.
Western blot. Cells were lysed by RIPA buffer supplemented with Amresco protease inhibitor cocktail (1:100 diluted) and centrifuged for 10 mins at 4 degrees and 10,000 RPM. Protein concentration was measured and 20 ug of protein was loaded for each sample. Antibodies used: EGFR, p-EGFR, b-actin (abcam).
(In western blotting, separated proteins are transferred to a membrane and probed.)

A further test deals with TN1 PDX tumor cells. Kind of test: ex vivo aggregation (clustering) assay of dissociated PDX tumor cells, IncuCyte time-lapse imaging. In kind it is cell-based, human.
For test [1], the system named is MDA-MB-231 cells. Kind of test: orthotopic breast tumor model: primary tumor, spontaneous lung metastasis and blood CTC clusters. The test is classed as in vivo, mice. From the text:
FIG. 21. Inhibition of EGFR blocks spontaneous metastasis. A. Timeline of treatment after palpable tumor formation in PDX model TN1. B. Bioluminescent images of tumor growth before or 1, or 17 days after treatment. C. Primary tumor signal over time, ns. D. Tumor images after 2 weeks of treatment. E. Bioluminescent images of lungs after treatment. F. Measured signal of lungs. p=0.09. G. Timeline of treatment of mice with Erlotinib or vehicle for FIGS. 19H-L. H. Bioluminescence images of orthotopically-implanted breast tumors treated with vehicle or 50 mg/kg Erlotinib (daily orally) for 4 weeks. I. BLI signal (total flux) histograms of the lungs from vehicle and Erlotinib-treated breast tumor bearing mice as shown in H. J. Bioluminescence images of dissected lungs from tumor bearing mice treated with vehicle or Erlotinib in C. K. Fluorescence images of dissected lungs from tumor bearing mice treated with vehicle or Erlotinib in C. L. Representative mix-color tumor cell clusters in blood from tumor bearing mice treated with vehicle or Erlotinib in C.
Inhibition of EGFR successfully blocks clustering and lung colonization. Using flow cytometry, we found enriched EGFR expression in clustered cells in the blood of breast cancer patients (FIG. 25). […] Furthermore, tdTomato- and eGFP-labeled MDA-MB-231 cells were implanted orthotopically together into the mammary fat pads of mice for examination of tumor cell cluster-mediated polyclonal, spontaneous lung metastasis.
Mouse models and tumor dissociation. 8-10 weeks old NOD/SCIDmice were used for PDXs and human MDA-MB-231 cell-based xenograft studies. The triple negative PDXs and MDA-MB-231 cells were lentivirally labeled by eGFP, tdTomato, Luc2-eGFP (L2G), or Luc2-tdTomato (L2T) using the lentiviruses and labeling protocol as described previously^3. PDX tumors were harvested and dissociated either with Collagenase III (TN1 model) or Liberase TH and TM research grade (TN2 model and lung tissues). Briefly, tumors were minced and incubated for 2-4 h at 37° C. with Collagenase III (Wortington Biomedical) or Liberase TH and TM (Roche) and 100 Kunitz U of DNase I (Sigma) in 20 mL of RPMI medium with 20 mM Hepes buffer. Single-cell suspensions were filtered through 40-μm nylon cell strainers and washed with Hanks' balanced saline solution (HBSS; Sigma) containing 2% heat-inactivated fetal bovine serum (FBS). Red blood cells were lysed with ACK lysis buffer, and dissociated bulk tumor cells were either cultured or stained with various antibodies in HBSS/2% FBS for further flow analysis or sorting on a BD FacsAria (BD Biosciences). […]
Bioluminescence imaging. […] Signals are presented as total photon flux and analyzed using Living Image 3.0 software (Caliper Life Sciences).

Test [2] has as its system MDA-MB-231 cells. Kind of test: MDA-MB-231 cell aggregation in suspension on Poly-HEMA-coated plates. The following applies: 4-MU 0.4 mM/L pre-treatment for 48 h; aggregation at 1 h. The test is classed as cell-based, human. On the procedure: Hyaluronan inhibition. Two complementary approaches were utilized to inhibit hyaluronan, the known CD44 ligand, in the two models. First, for the TN PDX model, dissociated cells were treated with hyaluronan antagonist (o-HA, HA oligomers) at 100 μg/mL during the 72-hour aggregation assays. For MDA-MB-231 cells, the hyaluronic acid synthase inhibitor 4-methylumbelliferone (4-MU, 0.4 mM/L) was added to the adherent culture. After 48 h of treatment, the cells were trypsinized and transferred to a poly-hydroxyethyl methacrylate (Poly-HEMA, Sigma-Aldrich) coated plate, and the images were taken at the indicated times by Leica microscopy.
Cell clustering assay. Freshly dissociated primary tumor cells in single cell suspension were seeded in collagen type I-coated 96-well plates. The plates were put into the IncuCyte live cell imaging system (Essen BioScience), and live images were taken every 2-4 h for up to one week. The cluster number and size were analyzed by Incucyte ZOOM software (Essen BioScience). In specific experiments, primary tumor cells might be sorted based on the expression of CD44 prior to seeding. In other experiments, seeded tumor cells might be transfected with siRNAs (100 nM) or treated with various inhibitors during the clustering assays. […]

[3] abbreviates: Erlotinib 50 mg/kg daily orally for 4 weeks.

Procedure for TN1 PDX tumor cells: Cell clustering assay. Freshly dissociated primary tumor cells in single cell suspension were seeded in collagen type I-coated 96-well plates. The plates were put into the IncuCyte live cell imaging system (Essen BioScience), and live images were taken every 2-4 h for up to one week. The cluster number and size were analyzed by Incucyte ZOOM software (Essen BioScience). In specific experiments, primary tumor cells might be sorted based on the expression of CD44 prior to seeding. In other experiments, seeded tumor cells might be transfected with siRNAs (100 nM) or treated with various inhibitors during the clustering assays. For cell viability analysis during clustering, the IncuCyte Cytotox Red reagent (Essen BioScience) was added to the medium according to the manufacturer's instructions.

Take `OC[C@H]1O[C@@](CO)(O[C@H]2O[C@H](CO)[C@@H](O)[C@H](O)[C@H]2O)[C@@H](O)[C@@H]1O` [sucrose]: in the test on phospho-EGFR (Y845), the “p-EGFR levels reduced by CD44 knockdown” value is recorded as “rescued”.

On to `CC(C)C[C@@H](C=O)NC(=O)[C@H](CC(C)C)NC(=O)[C@H](CC(C)C)NC(=O)OCc1ccccc1` [MG-132] (Cbz-Leu-Leu-Leu-aldehyde), for which, in the test with phospho-EGFR (Y845), the “p-EGFR levels reduced by CD44 knockdown” value was “rescued”.

`C#Cc1cccc(Nc2ncnc3cc(OCCOC)c(OCCOC)cc23)c1` [Erlotinib]: the “PDX-derived tumor cell cluster formation, counts and size” value in the test on TN1 PDX tumor cells (incubation with Erlotinib (1-10 μM), 72 hours) is “dramatically reduced PDX-derived tumor cell cluster formation, both the counts and size”. Further, in the test with MDA-MB-231 cells [1] (setting [3]), the primary tumor formation entry was “no effects on primary tumor formation”; the spontaneous lung metastasis entry was “significantly and dramatically reduced the spontaneous lung metastasis”. Also, in the test on MDA-MB-231 cells [1] (Erlotinib vs vehicle), the “CTC clusters in dual colors in the blood” value is reported as “only detectable in the blood collected from the vehicle-treated mice” and the “dual color metastasis colonies in the lungs” value was “absent but with reduced single-colored colonies”.

For the compound `Cc1cc(=O)oc2cc(O)ccc12` [4-MU, 4-methylumbelliferone], the “aggregation of MDA-MB-231 cells in suspension” value with MDA-MB-231 cells [2] is listed as “did not significantly alter the aggregation”.

As for `CCn1c(=O)c(-c2ccc(-c3cncs3)cc2Cl)cc2cnc(Nc3ccc(N4CCN(C)CC4)cc3)nc21` [FRAX597], the “ex vivo aggregation of TN1 PDX tumor cells (cluster size and number)” value in the test with TN1 PDX tumor cells (FRAX597 500 nM for 72 hours) is reported as “partially blocked the ex vivo aggregation”.
